Experimental data taken from ChEMBL document CHEMBL4145528, “Novel dissymmetric 3,5-bis(arylidene)-4-piperidones as potential antitumor agents with biological evaluation in vitro and in vivo” (Eur J Med Chem, 2018).
The source made the active and inactive calls. No cut-off for these calls is given here.

Key:
[1] = system: HeLa; experiment: Cytotoxicity against human HeLa cells assessed as reduction in cell viability after 24 hrs by MTT assay; type: functional, cell-based
[2] = system: HepG2; experiment: Cytotoxicity against human HepG2 cells assessed as reduction in cell viability after 24 hrs by MTT assay; type: functional, cell-based; details: for IC50: HepG2, 24 h
[3] = system: THP-1; experiment: Cytotoxicity against human THP1 cells assessed as reduction in cell viability after 24 hrs by MTT assay; type: functional, cell-based; details: for IC50: THP-1, 24 h
[4] = system: K562; experiment: Cytotoxicity against human K562 cells assessed as reduction in cell viability after 24 hrs by MTT assay; type: functional, cell-based; details: for IC50: K562, 24 h
[5] = system: L02; experiment: Cytotoxicity against human LO2 cells assessed as reduction in cell viability after 24 hrs by MTT assay; type: cell-based; details: L02, 24 h
[6] = system: HepG2; experiment: Downregulation of Bcl2 protein expression in human HepG2 cells at 50 uM after 3 hrs by western blot analysis; type: functional, cell-based
[7] = system: HepG2; experiment: Upregulation of Bax protein expression in human HepG2 cells at 50 uM after 3 hrs by western blot analysis; type: functional, cell-based
[8] = system: Mus musculus; experiment: Toxicity in Balb/c nude mouse xenografted with human HepG2 cells assessed as change in body weight at 10 mg/kg/day, ip daily for 20 days measured every 2 days during compound dosing; type: organism-based; details: in vivo
[9] = system: HepG2; experiment: Antitumor activity against human HepG2 cells xenografted in Balb/c nude mouse assessed as tumor growth inhibition at 10 mg/kg/day, ip daily for 20 days measured on day 21; type: functional, organism-based
[10] = Drug uptake in human HepG2 cell cytoplasm at 10 mg/ml after 4 hrs by Hoechst 33342 staining based confocal laser scanning microscopic method; type: ADME, subcellular; details: hepg2, 4 h
[11] = Drug uptake in human HepG2 cell nucleus at 10 mg/ml after 1 to 3 hrs by Hoechst 33342 staining based confocal laser scanning microscopic method; type: ADME, subcellular
[12] = system: HepG2; experiment: Induction of apoptosis in human HepG2 cells after 24 hrs by Annexin V-FITC/propidium iodide staining based flow cytometry; type: functional, cell-based
[13] = system: HepG2; experiment: Cytotoxicity against human HepG2 cells assessed as cell morphology disruption at 10 mg/ml after 4 hrs by Hoechst 33342 staining based confocal laser scanning microscopic method; type: functional
[14] = Drug uptake in human HepG2 cell nucleus at 10 mg/ml after 4 hrs by Hoechst 33342 staining based confocal laser scanning microscopic method; type: ADME, subcellular; details: hepg2, 4 h
[15] = Drug uptake in human HepG2 cell cytoplasm at 10 mg/ml after 1 to 3 hrs by Hoechst 33342 staining based confocal laser scanning microscopic method; type: ADME, subcellular
[16] = system: HepG2; experiment: Antitumor activity against human HepG2 cells xenografted in Balb/c nude mouse assessed as tumor growth inhibition at 1 mg/kg/2 days, ip for 20 days measured on day 21; type: functional, organism-based

SMILES | IC50 [1] | IC50 [2] | IC50 [3] | IC50 [4] | IC50 [5] | further results
COc1cc(/C=C2\CN(C)C/C(=C\c3ccc(C#N)cc3)C2=O)cc(OC)c1 | 3.42 µM | 0.88 µM | 0.94 µM | 4.65 µM | 14 µM | –
CN1C/C(=C\c2ccc(Cl)cc2)C(=O)/C(=C/c2ccc(C#N)cc2)C1 | 11.2 µM | 5.95 µM | 3.18 µM | 13.3 µM | 16.2 µM | –
COc1cc(/C=C2\CN(C)C/C(=C\c3cccc([N+](=O)[O-])c3)C2=O)cc(OC)c1 | 2.56 µM | 1.84 µM | 1.77 µM | 4.42 µM | 10.8 µM | –
COc1cc(/C=C/C(=O)CC(=O)/C=C/c2ccc(O)c(OC)c2)ccc1O [CURCUMIN] | 31.9 µM | 13.8 µM | 22.5 µM | 23.1 µM | 25.7 µM | –
COc1cc(/C=C2\CN(C)C/C(=C\c3ccc(Cl)cc3)C2=O)cc(OC)c1OC | > 20 µM | 8.25 µM | 7.2 µM | > 20 µM | 14 µM | –
COc1ccc(/C=C2\CN(C)C/C(=C\c3ccccc3F)C2=O)cc1 | 23.4 µM | 12.2 µM | 15.4 µM | 18.4 µM | 22.1 µM | –
COc1cc(/C=C2\CN(C)C/C(=C\c3ccc(C#N)cc3)C2=O)cc(OC)c1OC | 3.42 µM | 1.14 µM | 0.82 µM | 4.29 µM | 18.6 µM | Activity [1]: Dose-dependent effect; Activity [2]: Dose-dependent effect; Activity [3]: Dose-dependent effect; Activity [6]: Active; Activity [4]: Dose-dependent effect; Activity [7]: Active
CN1C/C(=C\c2cccc([N+](=O)[O-])c2)C(=O)/C(=C/c2ccccc2F)C1 | 2.34 µM | 1.08 µM | 1.01 µM | 3.89 µM | 13.5 µM | –
CN1C/C(=C\c2ccc(Br)cc2)C(=O)/C(=C/c2cccc([N+](=O)[O-])c2)C1 | 11.9 µM | 8.8 µM | 7.69 µM | > 20 µM | 9.85 µM | –
COc1cc(/C=C2\CN(C)C/C(=C\c3ccccc3F)C2=O)cc(OC)c1 | 5.45 µM | 1.24 µM | 1.17 µM | 6.32 µM | 11.9 µM | –
COc1cc(/C=C2\CN(C)C/C(=C\c3ccccc3F)C2=O)cc(OC)c1OC | 3.22 µM | 0.67 µM | 0.64 µM | 4.34 µM | 12.1 µM | Activity [8]: Non-Toxic; TGI [9]: Active; Activity [1]: Dose-dependent effect; Activity [2]: Dose-dependent effect; Activity [3]: Dose-dependent effect; Drug uptake [10]: Not Active; Drug uptake [11]: Not Active; Activity [12]: Dose-dependent effect; Activity [6]: Active; Activity [13]: Active; Drug uptake [14]: Active; Activity [4]: Dose-dependent effect; Drug uptake [15]: Active; Activity [7]: Active
COc1cccc2c1C(=O)c1c(O)c3c(c(O)c1C2=O)C[C@@](O)(C(=O)CO)C[C@@H]3O[C@H]1C[C@H](N)[C@H](O)[C@H](C)O1 [DOXORUBICIN] | 2.23 µM | 0.68 µM | 0.67 µM | – | 6.93 µM | TGI [16]: Active
COc1cc(/C=C2\CN(C)C/C(=C\c3ccc(F)cc3)C2=O)cc(OC)c1OC | 7.25 µM | 7.34 µM | 6.13 µM | 10.2 µM | 10.7 µM | –
COc1cc(/C=C2\CN(C)C/C(=C\c3ccc(Br)cc3)C2=O)cc(OC)c1 | 5.9 µM | 4.84 µM | 4.27 µM | 7.42 µM | 21.3 µM | –
COc1cc(/C=C2\CN(C)C/C(=C\c3ccc(Cl)cc3Cl)C2=O)cc(OC)c1 | 7.76 µM | 6.25 µM | 6.07 µM | 11.9 µM | 18.8 µM | –
COc1cc(/C=C2\CN(C)C/C(=C\c3ccc(Cl)c(Cl)c3)C2=O)cc(OC)c1OC | 13.5 µM | 6.96 µM | 5.33 µM | 16.1 µM | 18.4 µM | –
CN1C/C(=C\c2ccc(Cl)cc2)C(=O)/C(=C/c2cccc([N+](=O)[O-])c2)C1 | > 20 µM | 8.21 µM | 7.87 µM | > 20 µM | > 20 µM | –
CN1C/C(=C\c2ccc(F)cc2)C(=O)/C(=C/c2ccc(C#N)cc2)C1 | 10.2 µM | 6.14 µM | 5.03 µM | 11.2 µM | 20.9 µM | –
